Values quoted from earlier work in US5883123A, “Butyrate prodrugs derived from lactic acid” (Vertex Pharmaceuticals, Inc., priority 1995, dated 1999).

Key:
[1] = tested on: Cultured Erythroleukemic Cells; conditions: in vitro
tumor = conditions: mice

| Structure (SMILES) | cell differentiation [1] | effects in leukemia patients, by inducing cell differentiation (leukemia patients) | anti-tumor and anti-leukemia effects (tumor) |
| --- | --- | --- | --- |
| CCCC(=O)O [butyric acid] | induces cell differentiation in vitro | promising effects in leukemia patients | – |
| CCCC(=O)O [arginine butyrate] | – | – | anti-tumor and anti-leukemia effects in mice |
